According to patent US20160024083A1, “COMPOUNDS AND METHODS FOR TREATING CANCERS” (HEALTH RESEARCH, INC., priority 2013, published 2016):
pIC50: −log10 of the molar value. Blank lines part the entries; values can stand above or below the compound they belong to.

Tests used:
Mdm2 = Mdm2 accumulation, Western Blot; assay type: cell-based; conditions: MCF7 cells with functionally inactive p53 (R175H, GSE56)
Description: Results of Western Blot analysis: CWR22r cells were treated with 1 uM c52 for indicated time intervals.
Also tested was the hypothesis that degradation of androgen receptor in prostate and breast cancer cells may be due to p53 induced accumulation of mdm2, which is also ubiquitin ligase for androgen receptor (FIG. 15). p53 was inactivated in several cell lines using different approaches what led to the blockade of mdm2 accumulation after c52 treatment. However androgen receptor was still degraded in c52 treated cells even in the absence of p53 activation and mdm2 accumulation (FIG. 16).

PC3 = assay: Inhibition of growth / toxicity in non-target PC3 cells; assay type: cell-based; conditions: Homo sapiens, PC-3
Description: (§1) This example provides a table (below) of the compounds of the present disclosure and their activity towards four different cell lines (i.e., CWR22R, HeLa, PC3, and MDA-MB-231). The IC50 for inhibition of growth is divided into 4 categories: A<1 μM, B 1-5 μM, C 5-20 μM, D>20 μM.
(§2) All compounds were tested for toxicity using 4 cells lines, target cells—CWR22R and non-target cells, Hela, PC3 and MDA-MB-231 (FIGS. 1A-F).

CWR22R = assay: cells; assay type: cell-based; conditions: for pIC50: Homo sapiens, 22Rv1, CWR22R, read-out: IC50 for inhibition of growth
Description: FIG. 21. Toxicity of PLA1055 to CWR22R cells in vitro depending on time of incubation. PLA1055 was added to CWR22R in full range of concentrations for the periods of time shown on the right. After that drug containing media were changed for drug free and survival of cells was detected at 72 hours after start of treatment using Alamar Blue assay (Promega).
as §1, §2
(§3) LC50 data of in vitro 72 hours cytotoxicity assay are included in this table for comparison.
An in vitro experiment was run to detect the concentration of PLA1055 needed to kill all tumor cells in vitro (LC90) during different periods of time (30 minutes-72 hours, FIG. 21)).

MDA-MB-231 = assay: Inhibition of growth / toxicity in non-target MDA-MB-231 cells; assay type: cell-based; conditions: Homo sapiens
Description: as §1, §2

Hela = assay: Inhibition of growth / toxicity in non-target Hela cells; assay type: cell-based; conditions: Homo sapiens, HeLa
Description: as §1, §2

[1] = Plasma concentration (PK) after intravenous and intraperitoneal injections; assay type: in vivo; conditions: for plasma concentration time course: after IV and IP injections; for plasma concentration time course / bioavailability through IP injection: 50-100 mg/kg; for bioavailability through IP injection: plasma concentrations similar or even higher after IP than IV
[2] = Solubility for in vivo administration; assay type: physicochemical; conditions: tested for PK using IP injection of the drug in suspension
[3] = tested on: presumable target protein; assay: DARTS (Drug Affinity Responsive Target Stability) assay in CWR22r lysates; assay type: binding; conditions: protein lysates from CWR22r cells
Description: FIG. 24. DARTS (Drug Affinity Responsive Target Stability) assay was performed using c52 and PLA1118. According to this assay these compounds are capable of protecting presumable target protein from protease degradation. Protein lysates from sensitive CWR22r cells were incubated with or without the drug and subsequently digested with the indicated concentration of pronase. A. c52 was used (lane T-treated, M-marker) with indicated concentrations of pronase; ability of c52 to protect its target from protease cleavage was judged based on presence of protein band in the treated lane vs the untreated (UT) control.
Target identification through affinity chromatography and sensitivity to proteolysis methods was undertaken. […] These bands were excised from gel and sent for protein sequencing. (FIG. 24).

[4] = Tissue drug concentrations (tumor, liver, plasma) in treated CWR22R tumor-bearing mice; assay type: in vivo
Description: (§4) We tested these compounds in an in vivo efficacy experiment using model of CRPC in SCID mice, CWR22R. Two compounds, PLA1079 and 1125, which were synthesized in the amount of 500 mg were tested in full scale experiment with either 5 IV daily injections or 10 IP daily injections. After 5 IP or IV injections intra-tumor concentration of the compounds were measured in few mice from this experiment.
Two other compounds, PLA1148 and 1098 (PK testing in FIGS. 8 and 9) were tested in a small scale efficacy experiment. Upon PK testing of the compound PLA1148 one mouse was injected twice with 10 min interval. However the concentration of the drug in plasma of this mouse was not twice, but >4 times higher than in mice injected once. […] It was decided to utilize this observation in an attempt to get higher plasma and tumor concentration of both compounds. Therefore in the pilot efficacy experiment in the same model of CWR22R cells mice were treated with 2 IP injections with 10 minute interval. Treatment with PLA1098 was carried out for two days. […] However this is so far the highest concentration found in tumor. […]
as §3

CWR22R tumors = assay: In vivo efficacy, subcutaneous xenografts of CWR22R cells in SCID mice
Description: as §4
(§5) Two other compounds, PLA1148 and 1098 (PK testing in FIGS. 8 and 9) were tested in a small scale efficacy experiment. Upon PK testing of the compound PLA1148 one mouse was injected twice with 10 min interval. However the concentration of the drug in plasma of this mouse was not twice, but >4 times higher than in mice injected once. […] It was decided to utilize this observation in an attempt to get higher plasma and tumor concentration of both compounds. Therefore in the pilot efficacy experiment in the same model of CWR22R cells mice were treated with 2 IP injections with 10 minute interval. Treatment with PLA1098 was carried out for two days. […] However this is so far the highest concentration found in tumor.
Pilot efficacy experiments were run for compounds: PLA1163, PLA1148 using the same model of subcutaneous xenografts of CWR22R cells in SCID mice (FIGS. 18 and 19).

[5] = Toxicity / side effects in treated mice; assay type: in vivo
Description: as §5
This compound may be also potentially promising.

[6] = Aqueous solubility (pH 7.4); assay type: physicochemical
[7] = Metabolic stability in the presence of mouse liver microsomes; assay type: in vitro ADME; conditions: for metabolic stability, % left: after 30 minute incubation with mouse liver microsome
[8] = single IV administration of 50 mg/kg (FIG. 20)
[9] = one mouse, 24 hours after injections
[10] = classification (Stable/Moderate/Unstable), lines whose second value is in %
[11] = in %, table title: Metabolic stability and solubility, % left after 30 minute incubation with mouse liver microsome

Structure (SMILES): CC(=O)c1ccc2c(c1)c1cc(C(C)=O)ccc1n2CCNC(C)C [CBL 137, reference compound]
Mdm2 level (Mdm2): Mdm2 is no longer overexpressed

Structure (SMILES): N#Cc1ccc2c(c1)c1ccccc1n2CCCF [Compound 26-1, 9-(3-Fluoropropyl)-9H-carbazole-3-carbonitrile]
pIC50 (PC3): < 4.70
pIC50 (CWR22R): > 6.00
pIC50 (MDA-MB-231): < 4.70
pIC50 (Hela): < 4.70

Structure (SMILES): CCCn1c2ccc(C(C)=O)cc2c2c(O)cccc21 [Compound 27-1, 1-(5-Hydroxy-9-propyl-9H-carbazol-3-yl)-ethanone]
pIC50 (PC3): < 4.70
pIC50 (CWR22R): < 4.70
pIC50 (MDA-MB-231): < 4.70
pIC50 (Hela): < 4.70

Structure (SMILES): CC(=O)c1ccc2c(c1)c1ccccc1n2CCCF [PLA1055]
CC50 (CWR22R): 40 nM
LC90 (CWR22R; CWR22R, incubation 4-8 hours, survival at 72 hours, Alamar Blue assay): 2500 nM
plasma concentration at 8 hours [1, 8]: below 1 uM
time up to which compound was detected in plasma [1, 8]: up to 24 hours

solubility [2]: poorly soluble
Structure (SMILES): CCCn1c2ccccc2c2c3cc[nH]c(=O)c3ccc21 [PLA1099]

protection of target protein from pronase degradation [3]: faintly
Structure (SMILES): CCCn1c2ccccc2c2cc(S(C)(=O)=O)ccc21 [PLA1118]

solubility [2]: poorly soluble
Structure (SMILES): O=c1[nH]ccc2c1ccc1c2c2ccccc2n1CCCF [PLA1121]

Structure (SMILES): FCCCn1c2ccccc2c2cc(-c3nnco3)ccc21 [PLA1125]
CC50 (CWR22R): 100 nM
plasma concentration time course [1]: fast reduction of concentration during the first hour
bioavailability through IP injection [1]: very high
Tumor concentration ([4]; 100 mg/kg, IP/IV): 7 to 10 nM
intra-tumor concentration relative to LC50% in vitro ([4]; mouse, in vivo): significantly below LC50%
in vivo efficacy (CWR22R tumors; CWR22R in SCID mice, 5 IV daily injections or 10 IP daily injections): absence of in vivo efficacy

Structure (SMILES): O=C1NCCc2c1ccc1c2c2ncccc2n1CCCF [PLA1148]
plasma concentration time course [1]: fast reduction of concentration during the first hour
bioavailability through IP injection [1]: very high
plasma concentration of mouse injected twice versus mice injected once ([1]; two injections with 10 min interval): > 4 times
Liver ([4]; 50 mg/kg, IP): 50 nM
Tumor concentration ([4]; 50 mg/kg, IP): 0 to 90 nM
Tumor concentration ([4]; 48 hours after treatment): 84 nM
liver concentration ([4]; 48 hours after treatment): 49 nM
plasma concentration ([4]; 48 hours after treatment, compared with 24 hours (8.5 nM)): The same plasma concentration
drug in liver [4, 9]: no drug detected
drug in tumor [4, 9]: no drug detected
plasma concentration [4, 9]: 8.5 nM
tumors of mice that died on the 5th day (CWR22R tumors; CWR22R, two mice): almost undetectable tumors
acute toxicity ([5]; 2 IP injections with 10 minute interval, one day, symptoms suggested acute liver failure): acute toxicity developed quickly after injection
mortality ([5]; after one day of injections): 2 mice died next day and 3 other during next 5 days

Structure (SMILES): O=C1NCCOc2c1ccc1c2c2ccccc2n1CCCF [PLA1163]
CC50 (CWR22R): 200 nM
solubility [2]: poorly soluble
Liver ([4]; 40 mg/kg, IP): 307 nM
Tumor concentration ([4]; 40 mg/kg, IP): 4 to 10 nM

Aqueous Solubility Classification [6]: Low
Aqueous Solubility Classification ([6]; pH 7.4): Low
Structure (SMILES): O=c1[nH]ccc2c1ccc1c2c2ncccc2n1CCCF [PLA1181]

Aqueous Solubility Classification [6]: Moderate
Aqueous Solubility Classification ([6]; pH 7.4): Low
Structure (SMILES): O=C1COc2c(ccc3c2c2ncccc2n3CCCF)N1 [PLA1183]

Structure (SMILES): O=c1[nH]c2ccc3c(c4ccccc4n3CCCF)c2o1 [PLA1190]
metabolic stability, % left [7]: 70%
Metabolic stability, % left after 30 min with mouse liver microsomes [7, 10]: Stable
Metabolic stability, % left after 30 min with mouse liver microsomes [7, 11]: 77%
Aqueous Solubility (pH 7.4) ([6]; pH 7.4): 3.5 μM
Aqueous Solubility Classification ([6]; pH 7.4): Low

Structure (SMILES): CC(=O)c1ccc2c(c1)c1c(C(N)=O)cccc1n2CCCF [PLA1191]
Metabolic stability, % left after 30 min with mouse liver microsomes [7, 10]: Moderate
Metabolic stability, % left after 30 min with mouse liver microsomes [7, 11]: 30%
Aqueous Solubility (pH 7.4) ([6]; pH 7.4): 130 μM
Aqueous Solubility Classification ([6]; pH 7.4): High

Structure (SMILES): O=c1c2ccc3c(c2ccn1CCO)c1ccccc1n3CCCF [PLA1192]
Aqueous Solubility Classification [7, 10]: Moderate
Metabolic stability, % left after 30 min with mouse liver microsomes [7, 11]: 27%
Aqueous Solubility (pH 7.4) ([6]; pH 7.4): 15 μM
Aqueous Solubility Classification ([6]; pH 7.4): Moderate

Structure (SMILES): O=c1c2ccc3c(c2ccn1CCN1CCCC1)c1ccccc1n3CCCF [PLA1193]
Metabolic stability, % left after 30 min with mouse liver microsomes [7, 10]: Unstable
Metabolic stability, % left after 30 min with mouse liver microsomes [7, 11]: 3%
Aqueous Solubility (pH 7.4) ([6]; pH 7.4): 140 μM
Aqueous Solubility Classification ([6]; pH 7.4): High

Structure (SMILES): CN1Cc2c(ccc3c2c2ccccc2n3CCC(F)F)C1=O [PLA1194]
Aqueous Solubility Classification [7, 10]: Moderate
Metabolic stability, % left after 30 min with mouse liver microsomes [7, 11]: 28%
Aqueous Solubility (pH 7.4) ([6]; pH 7.4): 18 μM
Aqueous Solubility Classification ([6]; pH 7.4): Moderate

Structure (SMILES): N#Cc1cccc2c1c1c3cc[nH]c(=O)c3ccc1n2CCCF [PLA1195]
Metabolic stability, % left after 30 min with mouse liver microsomes [7, 10]: Moderate
Metabolic stability, % left after 30 min with mouse liver microsomes [7, 11]: 63%
Aqueous Solubility (pH 7.4) ([6]; pH 7.4): 2.7 μM
Aqueous Solubility Classification ([6]; pH 7.4): Low

Structure (SMILES): NC(=O)c1cccc2c1c1c3cc[nH]c(=O)c3ccc1n2CCCF [PLA1196]
Aqueous Solubility Classification [7, 10]: Moderate
Metabolic stability, % left after 30 min with mouse liver microsomes [7, 11]: 65%
Aqueous Solubility (pH 7.4) ([6]; pH 7.4): 26 μM
Aqueous Solubility Classification ([6]; pH 7.4): Moderate

Structure (SMILES): O=C1CCc2c1ccc1c2c2c(F)cccc2n1CCCF [PLA1197]
metabolic stability, % left [7]: 77%
Metabolic stability, % left after 30 min with mouse liver microsomes [7, 10]: Stable
Metabolic stability, % left after 30 min with mouse liver microsomes [7, 11]: 73%
Aqueous Solubility (pH 7.4) ([6]; pH 7.4): 4.0 μM
Aqueous Solubility Classification ([6]; pH 7.4): Low

Structure (SMILES): CC(=O)c1ccc2c(c1)c1c3c(ccc1n2CCCF)C(=O)CC3 [PLA1198]
Metabolic stability, % left after 30 min with mouse liver microsomes [7, 10]: Moderate
Metabolic stability, % left after 30 min with mouse liver microsomes [7, 11]: 46%
Aqueous Solubility (pH 7.4) ([6]; pH 7.4): 2.5 μM
Aqueous Solubility Classification ([6]; pH 7.4): Low

Structure (SMILES): O=C1CCc2c1ccc1c2c2cc(Br)ccc2n1CCCF [PLA1199]
Metabolic stability, % left after 30 min with mouse liver microsomes [7, 10]: Moderate
Metabolic stability, % left after 30 min with mouse liver microsomes [7, 11]: 42%
Aqueous Solubility (pH 7.4) ([6]; pH 7.4): 2.3 μM
Aqueous Solubility Classification ([6]; pH 7.4): Low
